Test results from patent US9061030B2, “sGC stimulators” (IRONWOOD PHARMACEUTICALS, INC., priority 2010, dated 2015).

What was measured:
[1] = molecular target: T1, Human soluble guanylate cyclase enzyme (hsGC) (Homo sapiens, UniProt Q02108+Q02153); test: Purified human sGC enzyme activity assay (with or without SNP); format: biochemical; conditions: 30 μM compound; for sGC Enzyme Activity Increase at 30 μM with SNP: 1 μM SNP, specific activity vs DMSO and SNP; for sGC Enzyme Activity Increase at 30 μM without SNP: specific activity vs DMSO control
T1 construct: purchased Enzo Inc. ALX-201-177
T1 sequence (Q02153 1-619): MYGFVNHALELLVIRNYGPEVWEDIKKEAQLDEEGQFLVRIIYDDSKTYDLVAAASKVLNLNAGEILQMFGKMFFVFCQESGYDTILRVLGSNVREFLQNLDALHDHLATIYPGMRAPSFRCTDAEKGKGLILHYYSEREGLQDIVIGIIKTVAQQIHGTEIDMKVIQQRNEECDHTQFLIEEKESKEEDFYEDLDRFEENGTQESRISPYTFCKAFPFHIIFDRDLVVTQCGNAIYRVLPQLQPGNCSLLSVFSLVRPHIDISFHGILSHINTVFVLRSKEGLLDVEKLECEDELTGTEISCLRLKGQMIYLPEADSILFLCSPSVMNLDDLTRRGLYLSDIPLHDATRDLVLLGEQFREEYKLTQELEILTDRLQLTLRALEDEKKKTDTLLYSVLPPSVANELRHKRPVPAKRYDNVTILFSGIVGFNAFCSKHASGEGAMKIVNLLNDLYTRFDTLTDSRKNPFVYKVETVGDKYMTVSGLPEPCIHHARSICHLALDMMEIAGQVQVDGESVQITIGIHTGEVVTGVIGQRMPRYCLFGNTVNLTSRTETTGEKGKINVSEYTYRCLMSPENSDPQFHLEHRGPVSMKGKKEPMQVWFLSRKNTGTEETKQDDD
T1 sequence (Q02108 1-690): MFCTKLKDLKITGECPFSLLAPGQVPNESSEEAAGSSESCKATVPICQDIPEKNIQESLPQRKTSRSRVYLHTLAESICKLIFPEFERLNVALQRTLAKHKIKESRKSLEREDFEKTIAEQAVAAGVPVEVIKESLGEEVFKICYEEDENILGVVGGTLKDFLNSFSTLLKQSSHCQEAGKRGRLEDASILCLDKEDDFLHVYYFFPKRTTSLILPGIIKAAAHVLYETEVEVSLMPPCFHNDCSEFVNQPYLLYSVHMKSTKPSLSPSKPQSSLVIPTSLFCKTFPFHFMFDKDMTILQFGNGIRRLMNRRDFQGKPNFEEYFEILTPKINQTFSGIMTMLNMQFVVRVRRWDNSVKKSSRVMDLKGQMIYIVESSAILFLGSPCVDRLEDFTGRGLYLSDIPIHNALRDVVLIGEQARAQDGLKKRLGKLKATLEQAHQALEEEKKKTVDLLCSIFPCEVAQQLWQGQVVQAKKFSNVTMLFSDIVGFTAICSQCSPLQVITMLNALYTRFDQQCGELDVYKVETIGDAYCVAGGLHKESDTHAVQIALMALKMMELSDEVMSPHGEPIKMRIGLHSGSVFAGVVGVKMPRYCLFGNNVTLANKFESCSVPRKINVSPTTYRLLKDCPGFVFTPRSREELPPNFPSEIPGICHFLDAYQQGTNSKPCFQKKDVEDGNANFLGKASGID
Procedure: Human soluble guanylate cyclase enzyme (hsGC) obtained from Enzo Inc. (P/N: ALX-201-177) was used to evaluate the activity of test compounds. The assay reactions contained 0.1 M Tris (pH 8.0), 0.5 mg/mL BSA (pH 8.0), 2 mM DTT, 2 mM MgCl2, 300 μM GTP, 1 mM 3-isobutyl-1-methylxanthine (IBMX) and 5 ng human soluble guanylate cyclase enzyme. Test compounds in DMSO were then added (2 μL, 10 or 30 μM final concentration) and incubated (200 μL, 96-well plate format) at 37° C. for 30 minutes. The controls were carried out using 2 μL DMSO. After the 30 minute incubation, the reaction was stopped with the addition of 200 μL of cold methanol. The plate was then centrifuged at 3,200 rpm for 10 minutes at room temperature. Supernatants (200 μL) were collected and transferred to a new 96 well plate for analysis.
An 8 point cGMP (Sigma-Aldrich P/N: G6129) standard curve was prepared in assay buffer ranging from 0.156-20 μM. Samples for the cGMP standard curve were then diluted with an equal volume of methanol resulting in final cGMP concentrations of 0.078-10 μM.
The cGMP standard curve was generated using GraphPad Prism Software.
Calculations: Specific Activity was determined by the amount of cGMP formed (nmoles) per mg of sGC per min. Enzyme activity “fold-change” was calculated by dividing the Specific Activity for a test compound by the Specific Activity of DMSO control.
The enzymatic activity fold-change of the purified human sGC enzyme determined in the presence of each of the test compounds individually at 10 or 30 μm without the addition of sodium nitroprusside (SNP), a nitric oxide donor, is presented in Table 5.
Enzyme assays were also performed as described above, but in the presence of 1 μM sodium nitroprusside (SNP). Enzymatic activity fold-changes are reported for selected test compounds in the presence of both SNP and the test compound. These were calculated by dividing the specific activity (activity increase) for the test compound dissolved in DMSO and SNP over the specific activity for the mixture of DMSO and SNP.

[2] = molecular target: T2, soluble guanylate cyclase (sGC) (Homo sapiens, UniProt Q02108+Q02153); test: sGC-HEK-cGMP assay; format: cell-based; conditions: HEK293 cells, 10 μM SNP, percentage of sGC activity obtained with positive control BAY 41-2272 (= 100%); for Emax at 10 µM: compound at 10 μM; for Emax at 30 µM: compound at 30 μM
T2 construct: endogenously expressing soluble guanylate cyclase (sGC); endogenous in cells; host or cells: HEK293
T2 sequence (Q02153 1-619): T1 sequence (Q02153 1-619)
T2 sequence (Q02108 1-690): T1 sequence (Q02108 1-690)
Procedure: Human embryonic kidney cells (HEK293), endogenously expressing soluble guanylate cyclase (sGC), were used to evaluate the activity of the test compounds. Compounds stimulating the sGC receptor should cause an increase in the intracellular concentration of cGMP. HEK 293 cells were seeded in Dulbecco's Modification of Eagle's Medium supplemented with fetal bovine serum (10% final) and L-glutamine (2 mM final) in a 200 μL volume at a density of 1×10^5 cells/well in a poly-D-lysine coated 96 well flat bottom plate and grown overnight at 37° C. Medium was aspirated and cells were washed with 1× Hank's Buffered Saline Salt Solution (200 μL). Cells were then incubated for 15 minutes at 37° C. with 0.5 mM 3-isobutyl-1-methylxanthine (200 μL). Test article was then added to the assay mixture (2 μL) and incubated in the presence of 10 μM Sodium Nitroprusside (SNP) at 37° C. for 10 minutes. After the 10 minute incubation, the assay mixture was aspirated and 0.1M HCl (200 μL) was added to the cells. The plate was incubated at 4° C. for 30 minutes in the 0.1M HCl to stop the reaction and lysed the cells. The plates were then centrifuged at 1,200 g for 5 minutes at room temperature. Supernatants were collected and transferred to a new flat bottom 96 well plate for analysis. Vehicle controls were carried out using DMSO (1%). A known sGC stimulator, BAY 41-2272, was used as the positive control.
Samples were diluted with an equal volume of 1 M Ammonium Acetate (pH 7) to neutralize samples for better chromatography. A 2×cGMP standard curve was prepared in 0.1 M HCl and then diluted with an equal volume of 1 M Ammonium Acetate, with the following final concentrations in nM: 1024, 512, 256, 128, 64, 32, 16, 8, 4, 2, 1.cGMP concentrations were determined from each sample using the LC/MS conditions (Table 2 below) and calculated standard curve. EC50 values were calculated from concentration-response curves generated with GraphPad Prism Software.
The biological activities of some of the compounds according to Formula IA or Formula IB determined with the sGC-HEK assay are summarized in Table 3 below.

SMILES | sGC Enzyme Activity Increase at 30 μM with SNP [1] | sGC Enzyme Activity Increase at 30 μM without SNP [1] | Emax at 10 µM [2] [%] | Emax at 30 µM [2] [%]
Fc1ccccc1Cn1nc(-c2ccccn2)nc1-c1ccccc1 [Compound I-2] | C (C = 2 to <5 fold increase) | D (D = 5 to <10 fold increase) | 5 to 10 | 5 to 10
Nc1cccc(-c2nc(-c3nccs3)n(Cc3ccccc3F)n2)n1 [Compound I-14, 6-(1-(2-fluorobenzyl)-5-(thiazol-2-yl)-1H-1,2,4-triazol-3-yl)pyridin-2-amine] | C (C = 2 to <5 fold increase) | B (B = 1 to <2 fold increase) | 5 to 10 | 10 to 20
Fc1ccccc1Cn1nc(-c2ccccn2)nc1Br [Compound I-16, 2-(5-bromo-1-(2-fluorobenzyl)-1H-1,2,4-triazol-3-yl)pyridine] | C (C = 2 to <5 fold increase) | B (B = 1 to <2 fold increase) | 0 to 5 | 5 to 10
Fc1ccccc1Cn1nc(-c2nccs2)nc1-c1cccc(Br)n1 [Compound I-18, 2-(5-(6-bromopyridin-2-yl)-1-(2-fluorobenzyl)-1H-1,2,4-triazol-3-yl)thiazole] | C (C = 2 to <5 fold increase) | B (B = 1 to <2 fold increase) | 0 to 5 | 0 to 5
Fc1ccccc1Cn1nc(-c2cccc(Br)n2)nc1-c1nccs1 [Compound I-19, 2-(3-(6-bromopyridin-2-yl)-1-(2-fluorobenzyl)-1H-1,2,4-triazol-5-yl)thiazole] | C (C = 2 to <5 fold increase) | B (B = 1 to <2 fold increase) | 10 to 20 | 0 to 5
Fc1ccccc1Cn1nc(-c2ccccn2)nc1C1CC1 [Compound I-21] | B (B = 1 to <2 fold increase) | B (B = 1 to <2 fold increase) | 0 to 5 | 0 to 5
Fc1ccccc1Cn1nc(-c2ccccn2)nc1C1CCC1 [Compound I-24] | C (C = 2 to <5 fold increase) | C (C = 2 to <5 fold increase) | 5 to 10 | 10 to 20
NC(=O)c1ccnc(-c2nc(-c3nccs3)n(Cc3ccccc3F)n2)c1 [Compound I-64, 2-(1-(2-fluorobenzyl)-5-(thiazol-2-yl)-1H-1,2,4-triazol-3-yl)isonicotinamide] | – | – | 10 to 20 | 5 to 10

Further lines, results first:

sGC Enzyme Activity Increase at 30 μM with SNP [1] | sGC Enzyme Activity Increase at 30 μM without SNP [1] | Emax at 10 µM [2] [%] | Emax at 30 µM [2] [%] | SMILES
C (C = 2 to <5 fold increase) | B (B = 1 to <2 fold increase) | 5 to 10 | 10 to 20 | Fc1ccccc1Cn1nc(-c2cscn2)nc1-c1ccccn1 [Compound I-5]
B (B = 1 to <2 fold increase) | B (B = 1 to <2 fold increase) | 0 to 5 | 5 to 10 | Fc1ccccc1Cn1nc(-c2ncco2)nc1-c1ccccn1 [Compound I-7]
B (B = 1 to <2 fold increase) | C (C = 2 to <5 fold increase) | 0 to 5 | 0 to 5 | Fc1ccccc1Cn1nc(-c2ncco2)nc1-c1ncccn1 [Compound I-8]
B (B = 1 to <2 fold increase) | C (C = 2 to <5 fold increase) | 0 to 5 | 5 to 10 | Fc1ccccc1Cn1nc(-c2ncccn2)nc1-c1ncco1 [Compound I-9]
C (C = 2 to <5 fold increase) | C (C = 2 to <5 fold increase) | 10 to 20 | 10 to 20 | Fc1ccccc1Cn1nc(-c2ncccn2)nc1-c1ccco1 [Compound I-11]
B (B = 1 to <2 fold increase) | C (C = 2 to <5 fold increase) | 0 to 5 | 0 to 5 | Fc1ccccc1Cn1nc(-c2cocn2)nc1-c1ccccn1 [Compound I-13, 4-(1-(2-fluorobenzyl)-5-(pyridin-2-yl)-1H-1,2,4-triazol-3-yl)oxazole]
B (B = 1 to <2 fold increase) | B (B = 1 to <2 fold increase) | 0 to 5 | 0 to 5 | Fc1ccccc1Cn1nc(-c2cscn2)nc1-c1ncccn1 [Compound I-20]
– | – | 40 to 60 | 40 to 60 | Nc1ccnc(-c2nc(-c3cocn3)n(Cc3ccccc3F)n2)c1 [Compound I-66, 2-(1-(2-fluorobenzyl)-5-(oxazol-4-yl)-1H-1,2,4-triazol-3-yl)pyridin-4-amine]
